Experimental data published in patent US12410162B2, “Pyrazole acylhydrazone containing trifluoromethylthiadiazole units, preparation method and use thereof” (NANTONG UNIVERSITY, priority 2020, dated 2025).

tested on: Mycosphaerella melonis; experiment: Screening of bactericidal activity against Mycosphaerella melonis (toxic medium method); type: cell-based; conditions: test concentration 200 μg/mL, 24-26° C. in the dark
Description: Screening of the Bactericidal Activity of the Samples Against Mycosphaerella melonis The toxic medium method was used to determine the antibacterial activity of the target against Mycosphaerella melonis. First the drug solution was added to the culture medium, then the bacterial cake was placed on the culture medium, the petri dish was placed in a 24-26° C. incubator in the dark, and then cultured at a constant temperature. Then according to the growth rate of pathogenic bacteria, when the diameter of the control was to about 8 cm, the antibacterial rate % was calculated. The test concentration was 200 μg/mL (the drug solution with other concentrations was obtained by diluting the drug solution with the concentration of 200 μg/mL).

Compound | Mycosphaerella melonis (inhibition ratio, %) [%]
Cc1nn(C)c(Oc2cccc(Cl)c2)c1C=NNC(=O)c1snnc1C(F)(F)F [Ia] | 100
Cc1nn(C)c(Oc2cccc(Br)c2)c1C=NNC(=O)c1snnc1C(F)(F)F [Ib] | 100
Cc1nn(C)c(Oc2ccc(F)cc2F)c1C=NNC(=O)c1snnc1C(F)(F)F [Ic] | 90
Cc1nn(C)c(Oc2ccc(Cl)cc2Cl)c1C=NNC(=O)c1snnc1C(F)(F)F [Id] | 100
